How the values were obtained:
[1] = tested on: red blood cells; test: Inhibition of thermal hemolysis of red blood cells; type: cell-based, donryu rats; conditions: 53°C for 20 minutes; for inhibition at 10 µM / inhibition at 50 µM / inhibition at 100 µM / inhibition at 200 µM / inhibition at 500 µM: Rattus norvegicus, Erythrocyte, 20 min, read-out: Hemolysis Inhibition Ratio (%) against Control
Procedure: Blood was collected from donryu rats of 150 to 200 g in body weight and centrifuged at 1,500 rpm for 5 minutes to obtain red blood cells. The red blood cells thus collected were diluted with 0.15 M phosphate buffer (pH 7.4) to prepare a 5% red blood cell suspension. A 3.8 ml portion of the thus prepared suspension was mixed with 0.2 ml solution of each compound of the present invention which has been adjusted to each level of the concentrations as shown in the following table, and the resulting mixture was shaken thoroughly and incubated at 53°C for 20 minutes. Thereafter, the thus incubated mixture was cooled rapidly with tap water and centrifuged at 3,000 rpm for 15 minutes, and absorbance at 540 nm of the resulting supernatant fluid was measured using a spectrophotometer (Hitachi: Type 200-20). Inhibition rate (%) of red blood cell hemolysis at each concentration of the compound was calculated based on the absorbance, with the results shown in Table 8.

[2] = tested on: male rats of SD line; test: High cholesterol feed: blood viscosity, serum total cholesterol, triglyceride, GOT; type: in vivo; conditions: 100 mg/kg/day, p.o., 4 days
Procedure: In this experiment, 5-week-old male rats of SD line (5 individuals per one group) were used after rearing them for 1 week using normal feed, and each compound of the present invention (100 mg/kg) was administered orally once a day for 4 days. Simultaneously with the commencement of the administration, the normal feed was replaced by a high cholesterol feed. After completion of the administration, they were subjected to fasting treatment for 24 hours. Thereafter, each rat was subjected to ventrotomy under anesthesia with Nembutal® (Dainabot Co., Ltd.; 50 mg/kg, i.p.) to collect blood from abdominal aorta, and the collected blood sample was checked for its blood viscosity using a viscometer (Biolyzer, Tokyo Keiki Co., Ltd.). At the same time, total cholesterol (Wako Pure Chemical Industries, Ltd.; Cholesterol E-test wako), triglyceride (Wako Pure Chemical Industries, Ltd.; Triglyceride G-test wako) and GOT (Wako Pure Chemical Industries, Ltd.; GOT-UV test-wako) in serum samples were measured.

[3] = Blood plasma clotting time after oral administration; type: in vivo, male rats of Wistar line; conditions: 30 mg/kg, p.o.; blood collected 90 minutes after administration; calcium chloride, 37°C
Procedure: In this experiment, 9-week-old male rats of Wistar line (5 to 6 individuals per one group) were used after rearing them for 1 week with normal feed. After 24 hours of fasting, each test drug was administered orally and, 90 minutes thereafter, blood sample was collected from lower abdominal vena cava of each rat under anesthesia with Nembutal® (1 ml/kg, i.p.). Blood samples obtained in this way were checked for their blood clotting time and erythrocyte deformability.
Measuring procedures are as follows.
Blood clotting time ... Collected blood sample is centrifuged at 3,500 rpm for 10 minutes to obtain blood plasma. The blood plasma is pre-incubated for 1 minute in a water bath controlled at 37°C, mixed with calcium chloride and then shaken at 20 second intervals to measure a time required for its clotting.

Structure (SMILES)	inhibition at 10 µM ([1]; 0.01 mM) [%]	inhibition at 50 µM ([1]; 0.05 mM) [%]	inhibition at 100 µM ([1]; 0.1 mM) [%]	inhibition at 200 µM ([1]; 0.2 mM) [%]	inhibition at 500 µM ([1]; 0.5 mM) [%]	GOT ±S.E. [2] [IU/ℓ]	Total Cholesterol ±S.E. [2] [mg/dL]	Triglyceride ±S.E. [2] [mg/dL]	Hemolysis Inhibition Ratio (%) against Control ([1]; 0.01 mM) [%]	Hemolysis Inhibition Ratio (%) against Control ([1]; 0.05 mM) [%]	Hemolysis Inhibition Ratio (%) against Control ([1]; 0.1 mM) [%]	Hemolysis Inhibition Ratio (%) against Control ([1]; 0.2 mM) [%]	Hemolysis Inhibition Ratio (%) against Control ([1]; 0.5 mM) [%]	Plasma Clotting Time ± S.E. [3] [s]
C[C@H](CCCO)[C@H]1CC[C@H]2[C@@H]3[C@H](O)C[C@@H]4C[C@H](O)CC[C@]4(C)[C@H]3C[C@H](O)[C@]12C [Illustrative Example 6, 3α,7α,12α,24-tetrahydroxy-5β-cholan]	24	22	38	51	59	136 ± 10	451 ± 50	107 ± 21						
CC(C)C(O)CC[C@@H](C)[C@H]1CC[C@H]2[C@@H]3[C@H](O)C[C@@H]4C[C@H](O)CC[C@]4(C)[C@H]3C[C@H](O)[C@]12C (stereo partly drawn) [Illustrative Example 5, 3α,7α,12α,24-tetrahydroxy-5β-cholestane]	25	21	33	51	58	131 ± 21	453 ± 49	110 ± 29						
C[C@H](CC[C@H](O)CCO)[C@H]1CC[C@H]2[C@@H]3[C@H](O)C[C@@H]4C[C@H](O)CC[C@]4(C)[C@H]3C[C@H](O)[C@]12C [Illustrative Example 3, 27-nor-(24S)-(+)-3α,7α,12α,24,26-pentahydroxy-5β-cholestane]						158 ± 12	428 ± 68	105 ± 40	38	31	22	41	61	213 ± 5.5
C[C@H](CC[C@@H](O)C(CO)CO)[C@H]1CC[C@H]2[C@@H]3[C@H](O)C[C@@H]4C[C@H](O)CC[C@]4(C)[C@H]3C[C@H](O)[C@]12C [Illustrative Example 1, (24R)-(+)-3α,7α,12α,24,26,27-hexahydroxy-5β-cholestane]	23	20	42	53	80	128 ± 10	390 ± 61	90 ± 16						
C[C@H](CC[C@H](O)[C@H](C)CO)[C@H]1CC[C@H]2[C@@H]3[C@H](O)C[C@@H]4C[C@H](O)CC[C@]4(C)[C@H]3C[C@H](O)[C@]12C [Example 10, (24S)-(25R) 3α,7α,12α,24,26-pentahydroxy-5β-cholestane]	24	21	31	44	58	145 ± 7	465 ± 59	99 ± 29						
CC(CCC1OCC1CO)C1CCC2C3C(O)CC4CC(O)CCC4(C)C3CC(O)C12C [Example 3, (24R)-(25S)-(+)-24,26-epoxy-5β-cholestane-3α,7α,12α,27-tetrol]						140 ± 10	445 ± 65	90 ± 39	33	30	24	51	70	195 ± 1.9
C[C@H](CCCC(CO)CO)[C@H]1CC[C@H]2[C@@H]3[C@H](O)C[C@@H]4C[C@H](O)CC[C@]4(C)[C@H]3C[C@H](O)[C@]12C [Example 6, 3α,7α,12α,26,27-pentahydroxy-5β-cholestane]	33	25	20	41	62	143 ± 8	391 ± 70	99 ± 41						

Reference: EP0489933A1, “BILE ALCOHOL AND DRUG CONTAINING THE SAME AS ACTIVE INGREDIENT” (TSUMURA CO., LTD., priority 1990, dated 1992)
